Assay results reported in patent US20030171544A1, “Alcohol dehydrogenase and use thereof” (DEGUSSA AG, priority 2001, published 2003).
Marks after values point to notes of the source that are not given here.

Test system: alcohol dehydrogenase (ADHF1)
Assay: Reduction of ketones with lyophilized recombinant ADHF1 crude extract, GC analysis
Format: biochemical, Pseudomonas fluorescens (DSM 50106)
Details: for Conversion: Table 1, GC analysis, 6.4 μmol substrate, 1.25 mg enzyme crude extract, 0.1 M Tris pH 8.0, 20% (v/v) isopropanol, room temperature, time 20-21 h
Protocol: The activity of lyophilized alcohol dehydrogenase is determined using acetophenone as model substrate. The standardized reaction mixture (250 μl) contains 6.4 μmol of substrate dissolved in isopropanol, 1.25 mg of enzyme (crude extract) in 0.1 M Tris buffer (pH 8.0) and 20% (v/v) isopropanol as substrate for NADH-recycling dehydrogenase. The reactions are carried out at room temperature, unless explicitly stated otherwise. All values were determined three times. After the reaction has finished, the reaction mixture is extracted with twice the amount of chloroform and the organic phase is then dried over sodium sulfate. The reaction products were analyzed isothermally at 120° C. by GC measurements (Shimadzu GC 14A, Tokyo, flame ionization detector, integrator C5RA) using a chiral column (heptakis (2,6-O-methyl-3-O-pentyl)-β-cyclodextrin, 25m×0.25mm ID, Macherey & Nagel, Düren). The retention times are 1.55 min for acetophenone, 2.77 min for (R)-α-phenylethanol and 2.99 min for (S)-α-phenylethanol. The absolute configuration was determined by using commercial standards. Further GC analyses were carried out at a temperature rising from 90° C. to 120° C. at a rate of 5° C./min. Here the retention times were 0.95 min for cyclopentanone, 1.37 min for cyclopentanol, 2.85 min for cycloheptanone, 4.29 min for cycloheptanol, 1.42 min for cyclohexanone and 2.12 min for cyclohexanol.

Row | SMILES | Conversion | yield of (R)-α-phenylethanol (conversion of acetophenone by ADHF1) [%]
1 | O=C1CCCC1 [Cyclopentanone] | 53% | –
2 | O=C1CCCCC1 [Cyclohexanone] | 100% | –
3 | CC(=O)c1ccccc1 [Substrate 1, acetophenone] | 95^b % | 95
4 | O=C1CCCCCC1 [Cycloheptanone] | 51% | –
